Experimental data reported in US11505536B2, “Dihydroorotate dehydrogenase inhibitors” (Janssen Biotech, Inc., priority 2019, dated 2022).
pIC50: −log10 of the molar value.

Key:
human DHODH = human DHODH (Homo sapiens (Human), UniProt Q02127); test: DHODH Enzymatic Assay; assay type: biochemical; conditions: purified human DHODH, DCIP absorbance, end-point mode; read-out: hDHODH IC50
Description: The following assay is referred to herein as the “DHODH Enzymatic Assay.” To detect DHODH enzyme activities, dichloroindophenol (DCIP) is added as the final electron acceptor in the assay. DCIP can accept electrons from the reduced coenzyme Q generated in the assay, or from dihydroorotate (DHO) via FMN by binding presumably to the ubiquinone pocket. DCIP solutions are blue, with an intense absorbance around 600 nm, but becomes colorless upon reduction (J. Biol. Chem. (1986) 261, 11386). The assay buffer contained […], pH 7.5, 150 mM NaCl, 0.5 mM EDTA, and 0.1% Triton X-100 in MilliQ water. Substrate consisting of 20 mM DHO, 5 mM CoQ6, and 1 mM DCIP in assay buffer, initiates the reaction. The assay is run in end-point mode by quenching the reaction with the potent DHODH inhibitor brequinar. Absorbance measurements were obtained using the BMG Phera Star plate-reading spectrophotomer. Purified human DHODH was purchased from Proteros (cat. No. PR-0044). Chemicals were purchased from Sigma-Aldrich, Teknova, and Avanti Polar Lipids. Liquid handling was performed using Labcyte Echo and Formulatrix Tempest.

[1] = test system: MOLM-13 cells (human acute myeloid leukemia cells); test: MOLM-13 Cellular Assay; assay type: cell-based; conditions: 72 hours exposure, cell viability by CellTiter-Glo
Description: The following assay is referred to herein as the “MOLM-13 Cellular Assay.” MOLM-13 cells (human acute myeloid leukemia cells) were obtained from DSMZ and were maintained in RPMI 1640+Glutamax+25 mM HEPES (Invitrogen, catalog number 72400) supplemented with 10% heat inactivated fetal bovine serum (FBS; Invitrogen, catalog number 16140). The day prior to assay set-up, cells were pelleted, resuspended in fresh media, counted, and cells were plated at 0.4×10^6 cell/mL in a T150 flask. On the day of the assay, cells were pelleted, resuspend in fresh media, counted and seeded at 5,000 cells/well in white opaque 96-well tissue culture treated microplates (Perkin Elmer, catalog number 6005680). Cells were exposed to different concentrations of test compounds at 37° C., 5% CO2 for 72 hours immediately after seeding. Cell viability was acquired on a Perkin Elmer Envision 2104 multilabel reader using the CellTiter-Glo assay (Promega) according to the manufacturer's instructions.

human DHODH, sequence (Q02127 whole entry): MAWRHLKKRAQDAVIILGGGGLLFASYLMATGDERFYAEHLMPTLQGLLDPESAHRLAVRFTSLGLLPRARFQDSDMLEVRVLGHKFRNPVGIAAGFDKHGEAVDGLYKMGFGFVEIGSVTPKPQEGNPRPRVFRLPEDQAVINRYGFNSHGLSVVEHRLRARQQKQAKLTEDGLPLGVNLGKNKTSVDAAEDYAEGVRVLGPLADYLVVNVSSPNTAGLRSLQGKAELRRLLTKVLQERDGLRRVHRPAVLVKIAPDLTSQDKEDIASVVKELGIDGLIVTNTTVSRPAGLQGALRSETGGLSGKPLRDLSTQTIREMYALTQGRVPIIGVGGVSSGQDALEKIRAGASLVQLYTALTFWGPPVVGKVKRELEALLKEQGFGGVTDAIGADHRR

Row | pIC50 (human DHODH) | pIC50 [1] | pIC50 ([1]; Homo sapiens, MOLM-13, 72 h) | SMILES
1 | 8.64 | – | 8.70 | C=C(C)c1cn(-c2ccccc2C(F)(F)F)c(=O)c2ccc(-n3nc(CO)n(CC)c3=O)cc12 [Example 12, 6-(4-Ethyl-3-(hydroxymethyl)-5-oxo-4,5-dihydro-1H-1,2,4-triazol-1-yl)-4-(prop-1-en-2-yl)-2-(2-(trifluoromethyl)phenyl)isoquinolin-1(2H)-one]
2 | 5.93 | – | 6.52 | CCn1c(CO)nn(-c2ccc3c(=O)n(-c4ccc([N+](=O)[O-])cc4F)cc(I)c3c2)c1=O [Example 16, 6-(4-Ethyl-3-(hydroxymethyl)-5-oxo-4,5-dihydro-1H-1,2,4-triazol-1-yl)-2-(2-fluoro-4-nitrophenyl)-4-iodoisoquinolin-1(2H)-one]
3 | 7.08 | – | 7.00 | CCc1nn(-c2cccc(F)c2)c(=O)c2ccc(-n3nc(CO)n(CC)c3=O)cc12 [Example 20, 4-Ethyl-6-(4-ethyl-3-(hydroxymethyl)-5-oxo-4,5-dihydro-1H-1,2,4-triazol-1-yl)-2-(3-fluorophenyl)phthalazin-1(2H)-one]
4 | 9.40 | 9.70 | ≥ 9.70 | CCn1c(CO)nn(-c2cc3c(C(C)C)cn(-c4ccccc4C)c(=O)c3cc2F)c1=O [Example 22, 6-(4-Ethyl-3-(hydroxymethyl)-5-oxo-4,5-dihydro-1H-1,2,4-triazol-1-yl)-7-fluoro-4-isopropyl-2-(o-tolyl)isoquinolin-1(2H)-one]
5 | 8.45 | – | 8.52 | CCn1c(CO)nn(-c2cc3c(C(C)C)cn(-c4c(C)ccnc4Cl)c(=O)c3cc2F)c1=O [Example 23, 2-(2-Chloro-4-methylpyridin-3-yl)-6-(4-ethyl-3-(hydroxymethyl)-5-oxo-4,5-dihydro-1H-1,2,4-triazol-1-yl)-7-fluoro-4-isopropylisoquinolin-1(2H)-one]
6 | 9.12 | – | 8.22 | CCn1c(CO)nn(-c2cc3c(C(C)C)cn(-c4c(C)n[nH]c4Cl)c(=O)c3cc2F)c1=O [Example 31, 2-(5-Chloro-3-methyl-1H-pyrazol-4-yl)-6-(4-ethyl-3-(hydroxymethyl)-5-oxo-4,5-dihydro-1H-1,2,4-triazol-1-yl)-7-fluoro-4-isopropylisoquinolin-1(2H)-one]
7 | 9.00 | – | 8.70 | C=C(C)c1cn(-c2ccccc2C)c(=O)c2cc(F)c(-n3nc(CO)n(CC)c3=O)nc12 [Example 32, 2-(4-Ethyl-3-(hydroxymethyl)-5-oxo-4,5-dihydro-1H-1,2,4-triazol-1-yl)-3-fluoro-8-(prop-1-en-2-yl)-6-(o-tolyl)-1,6-naphthyridin-5(6H)-one]
8 | 8.71 | – | 8.40 | CCn1c(CO)nn(-c2nc3c(C(C)C)nn(-c4ccccc4C)c(=O)c3cc2F)c1=O [Example 34, 2-(4-Ethyl-3-(hydroxymethyl)-5-oxo-4,5-dihydro-1H-1,2,4-triazol-1-yl)-3-fluoro-8-isopropyl-6-(o-tolyl)pyrido[2,3-d]pyridazin-5(6H)-one]

Second part, the molecule before the results:

Row | SMILES | pIC50 (human DHODH) | pIC50 [1] | pIC50 ([1]; Homo sapiens, MOLM-13, 72 h)
9 | CCn1c(CO)nn(-c2cc3c(C(C)C)cn(-c4c(F)cccc4Cl)c(=O)c3cc2F)c1=O [Example 11, 2-(2-Chloro-6-fluorophenyl)-6-(4-ethyl-3-(hydroxymethyl)-5-oxo-4,5-dihydro-1H-1,2,4-triazol-1-yl)-7-fluoro-4-isopropylisoquinolin-1(2H)-one] | 9.65 | 9.70 | ≥ 9.70
10 | C=C(C)c1cn(-c2ccccc2C#N)c(=O)c2ccc(-n3nc(CO)n(CC)c3=O)cc12 [Example 13, 2-(6-(4-Ethyl-3-(hydroxymethyl)-5-oxo-4,5-dihydro-1H-1,2,4-triazol-1-yl)-1-oxo-4-(prop-1-en-2-yl)isoquinolin-2(1H)-yl)benzonitrile] | 8.26 | – | 8.22
11 | C=C(C)c1cn(-c2ccccc2Cl)c(=O)c2ccc(-n3nc(CO)n(CC)c3=O)cc12 [Example 14, 2-(2-Chlorophenyl)-6-(4-ethyl-3-(hydroxymethyl)-5-oxo-4,5-dihydro-1H-1,2,4-triazol-1-yl)-4-(prop-1-en-2-yl)isoquinolin-1(2H)-one] | 9.14 | – | 9.40
12 | C=C(C)c1cn(-c2ccccc2C)c(=O)c2ccc(-n3nc(CO)n(CC)c3=O)cc12 [Example 15, 6-(4-Ethyl-3-(hydroxymethyl)-5-oxo-4,5-dihydro-1H-1,2,4-triazol-1-yl)-4-(prop-1-en-2-yl)-2-(o-tolyl)isoquinolin-1(2H)-one] | 9.20 | – | 9.40
13 | CCn1c(CO)nn(-c2ccc3c(=O)n(-c4ccccc4Cl)nc(C(C)C)c3c2)c1=O [Example 17, 2-(2-Chlorophenyl)-6-(4-ethyl-3-(hydroxymethyl)-5-oxo-4,5-dihydro-1H-1,2,4-triazol-1-yl)-4-isopropylphthalazin-1(2H)-one] | 8.49 | – | 8.52
14 | CCn1c(CO)nn(-c2ccc3c(=O)n(-c4cccc(F)c4)nc(C(C)C)c3c2)c1=O [Example 18, 6-(4-Ethyl-3-(hydroxymethyl)-5-oxo-4,5-dihydro-1H-1,2,4-triazol-1-yl)-2-(3-fluorophenyl)-4-isopropylphthalazin-1(2H)-one] | 7.09 | – | 7.52
15 | CCn1c(CO)nn(-c2ccc3c(=O)n(-c4c(F)cccc4Cl)nc(C(C)C)c3c2)c1=O [Example 19, 2-(2-Chloro-6-fluorophenyl)-6-(4-ethyl-3-(hydroxymethyl)-5-oxo-4,5-dihydro-1H-1,2,4-triazol-1-yl)-4-isopropylphthalazin-1(2H)-one] | 8.30 | – | 8.40
16 | CCc1nn(-c2ccccc2C)c(=O)c2ccc(-n3nc(CO)n(CC)c3=O)cc12 [Example 21, 4-Ethyl-6-(4-ethyl-3-(hydroxymethyl)-5-oxo-4,5-dihydro-1H-1,2,4-triazol-1-yl)-2-(o-tolyl)phthalazin-1(2H)-one] | 7.51 | – | 8.00
17 | CCn1c(CO)nn(-c2ccc3c(=O)n(-c4c(F)cccc4Cl)cc(C4(C)CC4)c3c2)c1=O [Example 24, 2-(2-Chloro-6-fluorophenyl)-6-(4-ethyl-3-(hydroxymethyl)-5-oxo-4,5-dihydro-1H-1,2,4-triazol-1-yl)-4-(1-methylcyclopropyl)isoquinolin-1(2H)-one] | 8.78 | – | 9.00
18 | CCn1c(CO)nn(-c2ccc3c(=O)n(-c4ccccc4C)cc(N(C)C)c3c2)c1=O [Example 26, 4-(Dimethylamino)-6-(4-ethyl-3-(hydroxymethyl)-5-oxo-4,5-dihydro-1H-1,2,4-triazol-1-yl)-2-(o-tolyl)isoquinolin-1(2H)-one] | 7.33 | – | 7.70
19 | CCn1c(CO)nn(-c2nc3c(C)nn(-c4ccccc4C)c(=O)c3cc2F)c1=O [Example 33, 2-(4-Ethyl-3-(hydroxymethyl)-5-oxo-4,5-dihydro-1H-1,2,4-triazol-1-yl)-3-fluoro-8-methyl-6-(o-tolyl)pyrido[2,3-d]pyridazin-5(6H)-one] | 6.62 | – | < 7.00
20 | C=C(C)c1cn(-c2c(F)cccc2Cl)c(=O)c2cc(F)c(-n3nc(CO)n(CC)c3=O)nc12 [Example 35, 6-(2-Chloro-6-fluorophenyl)-2-(4-ethyl-3-(hydroxymethyl)-5-oxo-4,5-dihydro-1H-1,2,4-triazol-1-yl)-3-fluoro-8-(prop-1-en-2-yl)-1,6-naphthyridin-5(6H)-one] | 8.94 | – | 9.00
